We go through six compounds from publication PMC9695592, “Phenotypic Evaluation of Nucleoside Analogues against Trypanosoma cruzi Infection: In Vitro and In Vivo Approaches” (Molecules, 2022).

The subject of assay [1] is promastigotes of LmexCas9. The experiment in a line: Resazurin-based assay on LmexCas9 promastigotes. Format: cell-based, Leishmania mexicana. The method, then: (§1) Bloodstream trypomastigotes of the Y strain (DTU II) were obtained by cardiac puncture of infected Swiss Webster mice on the parasitemia peak to perform drug sensitivity assays. Trypomastigote forms of the Tulahuen-β gal strain were collected from the supernatant of previously infected L929 cell cultures (host/parasite cell ratio 10:1). The intracellular forms T. cruzi were studied by the infection of L929 and H9C2 (2D and 3D) cell cultures infected for 48 and 24 h with trypomastigotes of Tulahuen-β gal and Y strains, respectively. The Leishmania mexicana-Cas9 T7 strain (LmexCas9) was derived from L. mexicana WT promastigotes by expression of the Streptococcus pyogenes Cas9 nuclease gene ‘Cas9′ and maintained on 32 μg/mL hygromycin [51]. This strain and the derived strains Cas9^ΔNT1 and Cas9^ΔNT1+TcrNT2 were cultured in HOMEM medium supplemented with 10% of FBS and 1% Penicillin-Streptomycin antibiotic in unvented flasks at 25 °C [52]. The Cas9^ΔNT1 strain is identical to Cas9 except that the LmexNT1.1/NT1.2 locus encoding the L. mexicana adenosine/ pyrimidine transporters was excised using Cas9 [17, 40]. Cas9^ΔNT1+TcrNT2 is the further modification of that strain by the expression of the T. cruzi nucleoside transporter 2 (TcrNT2) gene in it, using the vector pNUS-HcN [53]. Appropriate antibiotics were added for the selection and maintenance of transfectants.
(§2) The EC50 values for nucleoside analogues against Leishmania mexicana promastigotes of the Cas9, Cas9^ΔNT1 and Cas9^ΔNT1+TcrNT2 strains used a resazurin-based assay, as described. Briefly, the assays were performed in standard HOMEM medium and culture conditions, in white opaque 96-well plates. For each test compound (stored as a 40 mM stock solution in 100% DMSO at −20 °C), a doubling dilution was performed over 2 rows of the plate, keeping the last well free as no-drug control with HOMEM only (23 doubling dilutions; highest concentration 100 µM). To each well, 100 µL of HOMEM containing 2 × 10^5 cells of the appropriate L. mexicana line was added, and the plates incubated for 72 h at 25 °C, followed by the addition of 20 µL of resazurin solution and further incubation for 48 h. Fluorescence was read on a FLUOstar OPTIMA plate reader (BMG Labtech, Germany), at an excitation wavelength of 544 nm and an emission wavelength of 620 nm. The EC50 values were determined by the GraphPad Prism 8.0 software using an equation for a sigmoid curve with variable slope. Pentamidine was used as positive control, and every experiment was independently performed at least 3 times independently.
On the technique in general: Alamar Blue is a resazurin reagent that responds to reducing activity.

For assay [2], the target named is LmexNT1 (Leishmania mexicana, UniProt E9AQB5). The experiment in a line: Inhibition of [3H]-adenosine uptake by LmexNT1.1 expressed in L. mexicana promastigotes. Type of assay: biochemical. The method, then: Figure 2 Uptake of 50 nM [^3H]-adenosine by LmexNT1.1 expressed in L. mexicana promastigotes from which both original alleles of LmexNT1.1/NT1.2 and of LmexNT2 had been deleted by CRISPR/cas9. Incubation time was 10 s, well within the linear phase of uptake. Symbols represent averages of triplicate determinations, and error bars indicate ± SEM when not shown error bars fall within the symbol. The graph shown is a single experiment in triplicate, representative of three identical, independent repeats.
Uptake of 50 nM 2,8-^3H-adenosine (American Radiolabelled Chemicals (ART0287A), 40 Ci/ mmol) was exactly measured, exactly as described. Briefly, promastigotes were washed into the standard assay buffer (AB) by centrifugation, and aliquots of 100 µL containing 10^7 parasites were incubated with the radiolabel on top of an oil layer in a microfuge tube, for exactly 5 s. The incubation was stopped by the addition of 800 µL of ice-cold 1 mM adenosine in AB and immediate centrifugation through the oil layer to separate cells from the remaining extracellular radiolabel. Cell pellets were collected in scintillation vials after flash freezing in liquid nitrogen, by cutting of the tip of the microfuge tube. The promastigotes were then solubilised in 1% SDS, and scintillation fluid was added (Scintlogic U, Lablogic), and radioactivity was quantified in a Hidex 300SL scintillation counter (Lablogic). Data was plotted using non-linear regression with an equation for a sigmoid curve with a variable slope in Prism v8 (GraphPad).

In assay [3] the test system is promastigotes of Lmex^ΔNT1+TcrNT2. Description: Resazurin-based assay on Cas9^ΔNT1+TcrNT2 promastigotes. Format: cell-based, Leishmania mexicana. Conditions: for EC50: Leishmania mexicana, read-out: Lmex^ΔNT1+TcrNT2 EC50 (μM); for Lmex^ΔNT1+TcrNT2 Sensitization (fold): ratio of the EC50 values of the Cas9^ΔNT1 and Cas9^ΔNT1+TcrNT2 strains. As to the method: as §1, §2

Assay [4] concerns promastigotes of Cas9^ΔNT1. The experiment in a line: Resazurin-based assay on Cas9^ΔNT1 promastigotes. Format: cell-based, Leishmania mexicana. Conditions: Leishmania mexicana, read-out: Cas9^ΔNT1 EC50 (μM), promastigotes, resazurin-based assay, highest concentration 100 µM. The method, then: as §1, §2
In assay [5] the test system is H9C2 3D cultures. The experiment in a line: Cardiotoxicity on H9C2 organoids (3D), PrestoBlue. Format: cell-based, rat. The note with it: Rattus norvegicus, H9c2, 168 h, 3D H9C2, seven days of compound incubation; 95% confidence interval in brackets; read-out: Cardiotoxic profile IC50 (µM) 3D. An excerpt:
(§3) L929 cell lines were used to evaluate the effect of the nucleoside derivatives on the cellular viability of mammalian host cells and to assess their activity against intracellular forms of T. cruzi (Tulahuen strain expressing E. coli β-galactosidase gene, DTU VI) as reported. 2D and 3D culture systems of rat cardiomyoblast cell lines (H9C2(2-1)) were used to evaluate cardiotoxicity and to test the derivatives’ activity on intracellular forms (Y strain, DTU II). In all assays, the cell cultures were maintained at 37 °C under an atmosphere of 5% CO2.
L929 cells seeded in sterile 96-well microtiter plates were exposed or not to increasing concentrations (up to 200 µM) of the compounds. After seven days of incubation, the cell growth of treated cultures was compared to untreated control cells (100% cell growth). Cellular viability was assessed through AlamarBlue® (resazurin sodium salt) colorimetric assay, and the results were expressed as % reduction in cell growth/viability compared to untreated control, and an IC50 value determined. For the assays using H9C2 cultures, 25 × 10^3 cells/well were seeded in a 96-well microtiter plates (flat and U bottoms, precoated with agarose 1% for preparing 2- and 3D matrices, respectively) and maintained at 37 °C [48, 54].
The cardiac cultures were exposed or not to increasing concentrations of the nucleoside derivatives (up to 300 µM), and after seven days of incubation, their physiology and morphology was evaluated by light microscopy. Cell viability was measured using the PrestoBlue® (PB) colorimetric assay, the results evaluated as % reduction in cell growth/viability compared to untreated control, and an IC50 value determined. The data results from at least two independent experiments done in at least duplicates.

Assay [6] relates to H9C2 2D cultures. Description: Cardiotoxicity on H9C2 monolayers (2D), PrestoBlue. Format: cell-based. Conditions: Rattus norvegicus, 168 h; 2D H9C2, seven days of compound incubation; 95% confidence interval in brackets; read-out: Cardiotoxic profile IC50 (µM) 2D.
From the text: as §3
L929 cells seeded in sterile 96-well microtiter plates were exposed or not to increasing concentrations (up to 200 µM) of the compounds. […] Cellular viability was assessed through AlamarBlue® (resazurin sodium salt) colorimetric assay, and the results were expressed as % reduction in cell growth/viability compared to untreated control, and an IC50 value determined. For the assays using H9C2 cultures, 25 × 10^3 cells/well were seeded in a 96-well microtiter plates (flat and U bottoms, precoated with agarose 1% for preparing 2- and 3D matrices, respectively) and maintained at 37 °C [48, 54].
[…] Cell viability was measured using the PrestoBlue® (PB) colorimetric assay, the results evaluated as % reduction in cell growth/viability compared to untreated control, and an IC50 value determined. The data results from at least two independent experiments done in at least duplicates.

Where [7] appears, read: Leishmania mexicana, read-out: Cas9 EC50 (μM), promastigotes, resazurin-based assay, highest concentration 100 µM.

As a reminder, the Ki is a measure of affinity in units of concentration, obtained from inhibition or displacement. Usually IC50 stands for the concentration that gives 50% inhibition.

Read-outs that look alike come from different tables or passages of the source.

LmexNT1, sequence (E9AQB5 entry or part of it): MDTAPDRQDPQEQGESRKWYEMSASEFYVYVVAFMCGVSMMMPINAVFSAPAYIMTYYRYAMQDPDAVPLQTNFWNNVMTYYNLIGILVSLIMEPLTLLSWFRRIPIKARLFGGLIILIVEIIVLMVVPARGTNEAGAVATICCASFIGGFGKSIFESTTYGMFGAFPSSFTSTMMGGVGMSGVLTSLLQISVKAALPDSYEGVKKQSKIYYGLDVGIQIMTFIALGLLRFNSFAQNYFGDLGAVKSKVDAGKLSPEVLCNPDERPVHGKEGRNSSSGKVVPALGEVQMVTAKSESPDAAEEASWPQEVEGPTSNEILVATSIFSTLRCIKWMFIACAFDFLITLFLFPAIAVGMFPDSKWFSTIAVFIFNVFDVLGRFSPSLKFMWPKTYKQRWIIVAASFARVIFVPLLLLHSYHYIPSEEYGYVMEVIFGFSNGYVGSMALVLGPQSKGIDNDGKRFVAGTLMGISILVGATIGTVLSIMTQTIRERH

With `Nc1ncnc2c1c(-c1ccccc1)cn2[C@@H]1O[C@H](CO)[C@@H](O)[C@H]1O` [TH1004], the EC50 came to 37 ± 0.23 µM in assay [1] (setting [7]), 101 ± 0.5 µM in assay [3] and 138 ± 10 µM in assay [4]. Further, the Ki in assay [2] is 3.8 ± 0.3 µM. The “Lmex^ΔNT1+TcrNT2 Sensitization (fold)” value in assay [3] stood at 1.37 fold.
For `Nc1ncnc2c1c(Cl)cn2[C@@H]1O[C@H](CO)[C@@H](O)[C@H]1O` [FH3169] the same measures were 0.24 ± 0.06 µM, 0.32 ± 0.05 µM, 2 ± 0.19 µM, 2.8 ± 0.2 µM and 6.3 fold.
On to `Nc1ncnc2c1c(-c1ccc(Cl)cc1)cn2[C@@H]1O[C@H](CO)[C@@H](O)[C@H]1O` [TH1012], for which the EC50 in assay [1] (setting [7]) is 52.5 ± 0.3 µM; in assay [3], 96.6 ± 0.3 µM; in assay [4] it was 280 ± 18 µM. In addition, the “Lmex^ΔNT1+TcrNT2 Sensitization (fold)” value in assay [3] was 2.9 fold.
For `Nc1ncnc2c1ccn2[C@@H]1O[C@H](CO)[C@@H](O)[C@H]1O` [Tubercidin, reference compound], the figures for the EC50 in assay [1] (setting [7]) and in assay [4] were 1.02 ± 0.16 µM and 25.7 ± 0.94 µM, respectively. This compound also displayed a Ki in assay [2] of 5.8 ± 0.6 µM.
In the case of `N=C(N)c1ccc(OCCCCCOc2ccc(C(=N)N)cc2)cc1` [Pentamidine, reference compound], the results for the EC50 in assay [1] (setting [7]), in assay [3] and in assay [4] were 0.87 ± 0.1 µM, 1.12 ± 0.17 µM and 1.25 ± 0.22 µM, respectively. Moreover, the IC50 in assay [5] is over 200 µM; in assay [6], 46 µM. Moreover, the “Lmex^ΔNT1+TcrNT2 Sensitization (fold)” value in assay [3] is 1.11 fold.
`Nc1ncnc2c1c(-c1ccc(Cl)c(Cl)c1)cn2[C@@H]1O[C@H](CO)[C@@H](O)[C@H]1O` [FH3147, 7-(3,4-dichlorophenyl)tubercidin]: the EC50 in assay [1] (setting [7]) is 8.4 ± 1.6 µM; in assay [1] (read-out: Cas9 EC50, promastigotes, resazurin-based assay, highest concentration 100 µM), 8.41 ± 1.61 µM; in assay [3], 13.7 ± 1.25 µM; in assay [4], over 100 µM.
